Several values for one entry are separate records, joined by “and”; a condition that tells them apart may be missing. Equal entries are not always repeated.
What was measured:
S. aureus [1] = assay: Tertiary stage: antimicrobial activity (ET50/MIC) of extract of degradation products of antibiotic-impregnated ORC pads, single or combination; type: cell-based, Staphylococcus aureus; conditions: for Fold reduction in MIC concentration: primary MIC (antibiotic alone) versus antibiotic-impregnated ORC (tertiary) MIC; for MIC times higher than that of the primary stage MIC: antibiotic impregnated onto ORC pad
Method: Solutions comprising different concentrations of antibiotics to be tested were prepared in methanol.
Blank ORC pads of dimensions 1×1.5 inch, weighing between 65-75 mg (70 mg on average), in duplicate, were immersed in the antibiotic solutions and then dried using a rotary evaporator to provide extract of degradation products of antibiotic-impregnated ORC pads.
15 ml test tubes containing 3 ml of sterile PBS were prepared, and the antibiotic-impregnated ORC pads were immersed in the tubes and incubated for 3-5 hours at ambient temperature on a roller mixer (Stuart, Cat#SRT9D).
Each of the above extracts was filtered out using a sterile 0.8/0.2 μm syringe filter into a clean 15 ml tube. These extraction fluids are referred to herein as “extract of degradation products of antibiotic-impregnated ORC”.
Briefly, ORC pads weighing on average 70 mg each were impregnated with the selected antibiotic. Extracts of degradation products of antibiotic-impregnated ORC were prepared by immersion and incubation in 3 ml of sterile PBS for 3 hours at ambient temperature. The ORC degeneration products were then removed, and any remaining ORC particles were filtered out using a […] syringe filter. This extraction fluid was then diluted 10-fold into Muller Hinton growth medium containing bacteria. Bacterial growth was monitored every 20 min for a total of 18 hours according to optical density (OD) at 600 nm, using an ELISA reader.
Since the study included many possible combinations of two antibiotics, each with their own different concentration range, a matrix of possible antibiotic concentrations was designed, and degradation products of ORC were prepared accordingly (see Table 10). Since all the possible combinations could not be fitted into one 96 well plate, a series of MIC experiments were carried out.

S. aureus [2] = conditions: cited from earlier work

With `CN(C)c1ccc(O)c2c1C[C@H]1C[C@H]3[C@H](N(C)C)C(O)=C(C(N)=O)C(=O)[C@@]3(O)C(O)=C1C2=O` [Minocycline, minocycline] the “MIC fold lower in the presence of degradation products of ORC than in their absence” value (S. aureus [1]) was “at least 5.8 fold”, the “Fold reduction of the MIC for minocycline with at least one more antibiotic impregnated on ORC, versus minocycline alone” value (S. aureus [1]; combination with rifampin or clindamycin, with ORC degradation products) was 200 fold and the ET50 (S. aureus [1]; impregnated ORC extract, minocycline 1.26 ng/ml, clindamycin 0.00 ng/ml) was 637.6 min. It also gave an ET50 (S. aureus [1]; impregnated ORC extract, minocycline 1.26 ng/ml, rifampin 0.00 ng/ml) of 585.4 min, an ET50 (S. aureus [1]; impregnated ORC extract, minocycline 2.52 ng/ml, clindamycin 0.00 ng/ml) of 1072 min and an ET50 (S. aureus [1]; impregnated ORC extract, minocycline 2.52 ng/ml, rifampin 0.00 ng/ml) of 799.9 min. The ET50 (S. aureus [1]; impregnated ORC extract, minocycline 5.04 ng/ml, clindamycin 0.00 ng/ml) was over 2000 min, the ET50 (S. aureus [1]; impregnated ORC extract, minocycline 5.04 ng/ml, rifampin 0.00 ng/ml) was over 2000 min and the ET50 (S. aureus [1]; impregnated ORC extract, minocycline 6.30 ng/ml, clindamycin 0.00 ng/ml) was over 2000 min. It also gave an ET50 (S. aureus [1]; impregnated ORC extract, minocycline 6.30 ng/ml, rifampin 0.00 ng/ml) of over 2000 min, an ET50 (S. aureus [1]; minocycline-impregnated ORC extract, impregnation fluid 5 μg/ml, 0.00027 % on ORC, 6.30 ng/ml in MIC) of 1145 min and an ET50 (S. aureus [1]; minocycline-impregnated ORC extract, impregnation fluid 10 μg/ml, 0.00054 % on ORC, 12.60 ng/ml in MIC) of 2000 min. For the same compound, the ET50 (S. aureus [1]; minocycline-impregnated ORC extract, impregnation fluid 20 μg/ml, 0.00108 % on ORC, 25.20 ng/ml in MIC) was over 2000 min, the ET50 (S. aureus [1]; minocycline-impregnated ORC extract, impregnation fluid 40 μg/ml, 0.00216 % on ORC, 50.40 ng/ml in MIC) was over 2000 min and the “Fold reduction in MIC concentration” value (S. aureus [1]) was 20 and 19.85.
In the case of `CO[C@H]1/C=C/O[C@@]2(C)Oc3c(C)c(O)c4c(O)c(c(/C=N/N5CCN(C)CC5)c(O)c4c3C2=O)NC(=O)/C(C)=C\C=C\[C@H](C)[C@H](O)[C@@H](C)[C@@H](O)[C@@H](C)[C@H](OC(C)=O)[C@@H]1C` [Rifampin, rifampin], the “MIC values for S. aureus according to the literature” value (S. aureus [2]) is given as 4 to 15 ng/mL, the “Change of antimicrobial activity when impregnated onto the ORC pad versus first stage MIC” value (S. aureus [1]) is given as “impaired” and the “MIC times higher than that of the primary stage MIC” value (S. aureus [1]) is given as 50 times. For the same compound, the “MIC times higher than that of the primary stage MIC” value (S. aureus [1]; listed as rifampin) was “about 50 times”, the ET50 (S. aureus [1]; impregnated ORC extract, minocycline 0.00 ng/ml, rifampin 73.29 ng/ml) was 406.8 min and the ET50 (S. aureus [1]; impregnated ORC extract, minocycline 0.00 ng/ml, rifampin 146.58 ng/ml) was 442.3 min. For the same compound, the ET50 (S. aureus [1]; impregnated ORC extract, minocycline 0.00 ng/ml, rifampin 293.16 ng/ml) was 450.4 min, the ET50 (S. aureus [1]; impregnated ORC extract, minocycline 0.00 ng/ml, rifampin 366.45 ng/ml) was 418.1 min and the “Fold reduction in MIC concentration” value (S. aureus [1]) was 0.019. It also gave an ET50 (S. aureus [1]; rifampin-impregnated ORC extract, impregnation fluid 50 μg/ml, 0.015705 % on ORC, 366.45 ng/ml in MIC) of 643 min, an ET50 (S. aureus [1]; rifampin-impregnated ORC extract, impregnation fluid 100 μg/ml, 0.03141 % on ORC, 732.9 ng/ml in MIC) of 1396 min and an ET50 (S. aureus [1]; rifampin-impregnated ORC extract, impregnation fluid 150 μg/ml, 0.047115 % on ORC, 1099.35 ng/ml in MIC) of over 2000 min. For the same compound, the ET50 (S. aureus [1]; rifampin-impregnated ORC extract, impregnation fluid 200 μg/ml, 0.06282 % on ORC, 1465.8 ng/ml in MIC) was over 2000 min.
